Values of other authors in patent US20260199246A1, “LUMATEPERONE PHARMACEUTICAL COMPOSITION, AND LONG-ACTING MICROSPHERE SUSTAINED-RELEASE FORMULATION AND PREPARATION METHOD THEREFOR” (SICHUAN KELUN PHARMACEUTICAL RESEARCH INSTITUTE CO., LTD., priority 2022, published 2026).

Conditions: compared with risperidone

reduction of the risk of weight gain: 13%
Compound: CN1CCN2c3c(cccc31)[C@@H]1CN(CCCC(=O)c3ccc(F)cc3)CC[C@@H]12 [Lumiperone, Lumateperone]
